Assay results taken from patent publication US12139481B2, “Compositions comprising macrocycle derivatives incorporating bridged macrocycles and methods of producing and using same” (Southwestern Oklahoma State University, priority 2015, dated 2024).

Test system: Cryptococcus neoformans ATCC 90113
Test: Antimicrobial microdilution assay against Cryptococcus neoformans (modified CLSI/NCCLS, optical density)
Type: cell-based
Settings: for X more potent than Amphotericin B: C. neoformans, ratio of molar IC50 to Amphotericin B; for C. neoformans IC50 / IC50: in vitro, C. neoformans ATCC 90113; for IC50: read-out: C. neoformans IC50 (mol/L)
Experimental: Summary: Various macrocyclic derivatives constructed in accordance with the presently disclosed and/or claimed inventive concept(s) were screened in vitro against Cryptococcus neoformans ATCC 90113 using a microdilution assay. The minimum fungicidal concentration (MFC), the lowest test concentration that kills the organism, was determined in broth media.
Antimicrobial assay: Cryptococcus neoformans ATCC 90113 were obtained from the American Type Culture Collection (Manassas, VA.). The susceptibility testing was performed using a modified version of the CLSI (formerly NCCLS) methods (see below), and optical density was used to monitor growth. Samples were serially diluted in 20% DMSO/saline and transferred in duplicate to 96-well flat bottom microplates. Microbial inocula were prepared by correcting the OD630 of cell/spore suspensions in incubation broth RPMI at pH 6.0 to afford final desired target inocula. Amphotericin B (“AMB;” ICN Biomedicals, OH) was used as drug control. The organism concentration was read at 630 nm using the Biotek Powerwave XS plate reader (Bio-Tek instruments, VT) prior to and after incubation. Minimum fungicidal concentrations were determined by removing 5 μL from each clear well, transferring to agar, and incubating until growth was seen. The MFC/MBC is defined as the lowest test concentration that kids the organism (allows no growth on agar).
References for NCCLS methods referenced above: 1 NCCLS. Reference method for broth dilution antifungal susceptibility testing of yeasts, Vol. 22. Approved standard, 2nd ed. Wayne: National Committee for Clinical Laboratory Standards; 2002: 1-51. 2 NCCLS. Reference method for broth dilution antifungal susceptibility testing of conidium forming filamentous fungi, Vol. 18. Proposed standard M38-P. Wayne: National Committee for Clinical Laboratory Standards; 1998: 1-39. 3 NCCLS. Methods for dilution antimicrobial susceptibility tests for bacteria that grow aerobically, Vol. 20. NCCLS Document M7-A5. Wayne: National Committee for Clinical Laboratory Standards; 2000: 1-58.
The term “IC50” as used herein will be understood to refer to a test concentration in mol/L that affords 50% inhibition of the microbe relative to negative and positive controls. […] The abbreviation “MFC” as used herein will be understood to refer to a minimum fungicidal concentration, or the lowest test concentration in mol/L that kills the organism. All IC50s are calculated using the XLfit® fit curve fitting software (ID Business Solutions Ltd, Guildford, Surrey, UK).
General Experimental Procedures. All organisms were obtained from the American Type Culture Collection (Manassas, VA) and include the fungi Candida albicans ATCC 90028, C. glabrata ATCC 90030, C. krusei ATCC 6258, and Cryptococcus neoformans ATCC 90113, and the bacteria Staphylococcus aureus ATCC 29213 and methicillin-resistant S. aureus ATCC 33591 (MRS). All organisms were tested using modified versions of the CLSI (formerly NCCLS) methods. For all organisms, optical density was used to monitor growth (NCCLS, Reference Method for Broth Dilution Antifungal Susceptibility Testing of Yeasts; Approved Standard M27-A2. National Committee on Clinical Laboratory Standards, 2002 22 (15); and NCCLS, Methods for Dilution Antimicrobial Susceptibility Tests for Bacteria that Grow Aerobically; Approved Standard, Seventh Edition M7-A7. National Committee on Clinical Laboratory Standards, 2006. 26(2)).
Samples (dissolved in DMSO) were serially-diluted in 20% DMSO/saline and transferred (10 μL) in duplicate to 96 well flat bottom microplates.

Compound | X more potent than Amphotericin B | C. neoformans IC50 | IC50
O=[N+]([O-])c1ccc(Cn2c(CN3CCNCCN4CCN(CC4)CC3)nc3ccccc32)cc1 [SJA229, SB-BINO2-cyclen] | 0.06 | 1.890 µg/mL | 4.08 µM
[Zn(H2PBCyclam)(OAc)]PF6•2.5NH4PF6 [SLK41] | 0.04 | 5.190 µg/mL | 5.66 µM
[Cu2(p-SB-cyclam-cyclen)(OAc)1.2][PF6]2.8 [CMB018] | 0.09 | 3.020 µg/mL | 2.67 µM
CN1CCCN2CCN(C)CCN(CC1)CC2.F[P-](F)(F)(F)(F)F.[Cl-].[Cl-].[Co+3] [DGJ031, [Co(B13N4)Cl2]PF6] | 0.02 | 4.980 µg/mL | 9.67 µM
CC(=O)[O-].CC(=O)[O-].CN1CCN2CCN(CC1)CCN(Cc1nc3ccccc3[nH]1)CC2.[Zn+2] [SJA225, [Zn(CB-BI-cyclen)(OAc)2]] | 0.01 | 5.690 µg/mL | 
[Zn2(m-SB-cyclam-cyclen)(OAc)2][PF6]2•3.3H2O [CMB035] | 0.33 | ≤ 0.800 µg/mL | 0.711 µM
CC(=O)[O-].CC(=O)[O-].F[P-](F)(F)(F)(F)F.F[P-](F)(F)(F)(F)F.O.[Co+2].[Co+2].c1cc(CN2CCNCCCN3CCN(CC3)CC2)cc(CN2CCNCCCN3CCN(CC3)CC2)c1 [OB55, [Co2(m-SB-Homocyclens)(OAc)2][PF6]2•H2O] | 0.05 | 5.120 µg/mL | 4.78 µM
Clc1ccc2c(N3CCNCCN(c4ccnc5cc(Cl)ccc45)CCNCC3)ccnc2c1.[Cl-].[Cl-].[Mn+2] [K-PAA2-0004-P8-TJH410, {[Mn(4,10-bis(7-chloroquinoline)cyclen]Cl2}] | 0.04 | 4.123 µg/mL | 6.64 µM
C1CNCCN2CCCNCCN(C1)CCC2.O.[Cl-].[Cl-].[Cl-].[Fe+3] [SLK36, Fe(H2PBCyclam)Cl3•H2O] | 0.03 | 3.330 µg/mL | 7.92 µM
CC(=O)[O-].CC(=O)[O-].F[P-](F)(F)(F)(F)F.F[P-](F)(F)(F)(F)F.O.O.[Zn+2].[Zn+2].c1cc(CN2CCNCCN3CCN(CC3)CC2)cc(CN2CCNCCN3CCN(CC3)CC2)c1 [OB37, [Zn2(m-SB-Cyclens)(OAc)2][PF6]2•2H2O] | 0.32 | ≤ 0.800 µg/mL | 
[Fe2(m-cyclam-homocyclen)][FeCl4]2•7H2O [AW048] | 0.17 | 1.660 µg/mL | 1.38 µM
C1CNCCN2CCCNCCN(C1)CC2.CC(=O)[O-].F[P-](F)(F)(F)(F)F.[Co+2] [ANC25, [Co(H2Bcyclam)(OAc)]PF6] | 0.03 | 4.360 µg/mL | 8.91 µM
CC(=O)[O-].CC(=O)[O-].O=[N+]([O-])c1ccc(Cn2c(CN3CCNCCN4CCN(CC4)CC3)nc3ccccc32)cc1.[Ni+2] [SJA232, [Ni(SB-BINO2-cyclen)(OAc)2]] | 0.02 | 5.070 µg/mL | 10.9 µM
CC(=O)[O-].CC(=O)[O-].CC(=O)[O-].F[P-](F)(F)(F)(F)F.F[P-](F)(F)(F)(F)F.F[P-](F)(F)(F)(F)F.[Co+3].[Co+3].c1cc(CN2CCCN3CCNCCCN(CC3)CC2)ccc1CN1CCCN2CCNCCCN(CC2)CC1 [TJH414B, [Co2(H2-p-CB-cyclams)(OAc)3][PF6]3] | 1.31 | 0.234 µg/mL | 0.182 µM
[Cl][Fe-2]([Cl])([Cl])[Cl].[Cl][Fe-2]([Cl])([Cl])[Cl].[Fe+2].[Fe+2].c1cc(CN2CCCN3CCNCCCN(CC3)CC2)ccc1CN1CCCN2CCNCCCN(CC2)CC1 [TJH413B, [Fe2(H2-p-CB-cyclams)][FeCl4]2] | 0.03 | 7.380 µg/mL | 6.95 µM
[Zn(Me1Pic1-CB-cyclen)](PF6)2 [KRW49] | 0.03 | 5.230 µg/mL | 7.53 µM
[Co(Me1Py1-CB-Cyclam)Cl]PF6 [DGJ012] | 0.03 | 4.730 µg/mL | 8.29 µM
[Cl-].[Cl-].[Zn+2].c1ccc2[nH]c(CN3CCNCCN4CCN(CC4)CC3)nc2c1 [SJA222, [Zn(SB-BI-cyclen)(Cl)2]] | 0.03 | 2.610 µg/mL | 
[Cu2(p-CB-Homocyclens)(OAc)2][PF6]2 [ANC011] | 0.06 | 4.190 µg/mL | 3.85 µM
CN1CCCN2CCN(C)CCN(CC1)CC2.F[P-](F)(F)(F)(F)F.[Cl-].[Cl-].[Mn+3] [DLM10, [Mn(B13N4)Cl2]PF6] | 0.01 | 9.522 µg/mL | 18.6 µM
[Co(Me1Pic1-CB-cyclen)](PF6)3 [KRW48] | 0.18 | 1.090 µg/mL | 1.3 µM
CC(=O)[O-].CC(=O)[O-].F[P-](F)(F)(F)(F)F.F[P-](F)(F)(F)(F)F.[Ni+2].[Ni+2].c1cc(CN2CCCN3CCNCCCN(CC3)CC2)ccc1CN1CCCN2CCNCCCN(CC2)CC1 [TJH415B, [Ni2(H2-p-CB-cyclams)(OAc)2][PF6]2] | 0.30 | 0.850 µg/mL | 0.787 µM
[Mn(Py-SB-Cyclam)Cl]PF6•3H2O [ADS17] | 0.03 | 5.220 µg/mL | 8.6 µM
F[P-](F)(F)(F)(F)F.F[P-](F)(F)(F)(F)F.F[P-](F)(F)(F)(F)F.F[P-](F)(F)(F)(F)F.O.O.[Cu+2].[Cu+2].c1cc(CN2CCNCCCN3CCN(CC3)CC2)ccc1CN1CCNCCCN2CCN(CC2)CC1 [OB49, [Cu2(p-SB-Homocyclens)][PF6]4•2H2O] | 0.38 | ≤ 0.800 µg/mL | 0.63 µM
C1CNCCN2CCCNCCN(C1)CCC2.CC(=O)[O-].F[P-](F)(F)(F)(F)F.F[P-](F)(F)(F)(F)F.F[P-](F)(F)(F)(F)F.[NH4+].[NH4+].[Ni+2] [SLK39B, [Ni(H2PBCyclam)(OAc)]PF6•2NH4PF6] | 0.03 | 5.890 µg/mL | 7.1 µM
CC(=O)[O-].CN1CCN2CCN(CC1)CCN(Cc1cc(Cl)nc(Cl)c1)CC2.F[P-](F)(F)(F)(F)F.[Co+2] [OB118, [Co(Me1dcp1-CB-cyclen)(OAc)]PF6] | 0.03 | 6.050 µg/mL | 9.52 µM
